Test results from paper doi:10.1101/2021.04.08.439011v1 (biorxiv, 2021).
Like-named read-outs stand apart in the source and are kept apart here.

Key:
[1] = target: BRSK2 (Homo sapiens, UniProt Q8IWQ3); conditions: 1 µM; binder
[2] = target: EGFR(L858R) (Homo sapiens, UniProt P00533, L858R); conditions: 1 µM; binder
[3] = target: AMPK-alpha1 (Homo sapiens, UniProt Q13131); conditions: 1 µM; binder
[4] = target: PRKD2 (Homo sapiens, UniProt Q9BZL6); conditions: 1 µM; binder
[5] = target: RIOK1 (Homo sapiens, UniProt Q9BRS2); conditions: 1 µM; binder
[6] = target: GRK3 (Homo sapiens, UniProt P35626); conditions: 1 µM; binder
Sequence of GRK3 (P35626 whole entry): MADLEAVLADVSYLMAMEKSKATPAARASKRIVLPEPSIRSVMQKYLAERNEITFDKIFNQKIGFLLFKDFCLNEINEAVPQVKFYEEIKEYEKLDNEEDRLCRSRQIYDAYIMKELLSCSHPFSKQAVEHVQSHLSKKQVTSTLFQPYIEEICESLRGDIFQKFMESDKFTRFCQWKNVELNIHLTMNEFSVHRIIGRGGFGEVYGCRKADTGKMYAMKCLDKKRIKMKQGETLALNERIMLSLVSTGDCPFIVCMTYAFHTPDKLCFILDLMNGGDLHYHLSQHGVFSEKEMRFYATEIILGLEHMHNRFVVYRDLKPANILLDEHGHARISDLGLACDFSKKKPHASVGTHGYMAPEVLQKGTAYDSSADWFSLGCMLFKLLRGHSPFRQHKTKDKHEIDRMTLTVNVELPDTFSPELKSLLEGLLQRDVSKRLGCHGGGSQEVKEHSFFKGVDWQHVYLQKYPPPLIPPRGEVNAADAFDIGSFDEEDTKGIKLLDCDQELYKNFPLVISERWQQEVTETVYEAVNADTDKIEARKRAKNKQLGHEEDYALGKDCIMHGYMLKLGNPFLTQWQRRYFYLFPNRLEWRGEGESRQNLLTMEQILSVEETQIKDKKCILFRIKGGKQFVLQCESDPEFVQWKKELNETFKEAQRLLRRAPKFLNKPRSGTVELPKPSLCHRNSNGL

[7] = target: CAMK1G (Homo sapiens, UniProt Q96NX5); conditions: 1 µM; binder
[8] = target: PAK7 (Homo sapiens, UniProt Q9P286); conditions: 1 µM; binder
[9] = target: ROS1 (Homo sapiens, UniProt P08922); conditions: 1 µM; binder
Sequence of ROS1 (P08922 whole entry): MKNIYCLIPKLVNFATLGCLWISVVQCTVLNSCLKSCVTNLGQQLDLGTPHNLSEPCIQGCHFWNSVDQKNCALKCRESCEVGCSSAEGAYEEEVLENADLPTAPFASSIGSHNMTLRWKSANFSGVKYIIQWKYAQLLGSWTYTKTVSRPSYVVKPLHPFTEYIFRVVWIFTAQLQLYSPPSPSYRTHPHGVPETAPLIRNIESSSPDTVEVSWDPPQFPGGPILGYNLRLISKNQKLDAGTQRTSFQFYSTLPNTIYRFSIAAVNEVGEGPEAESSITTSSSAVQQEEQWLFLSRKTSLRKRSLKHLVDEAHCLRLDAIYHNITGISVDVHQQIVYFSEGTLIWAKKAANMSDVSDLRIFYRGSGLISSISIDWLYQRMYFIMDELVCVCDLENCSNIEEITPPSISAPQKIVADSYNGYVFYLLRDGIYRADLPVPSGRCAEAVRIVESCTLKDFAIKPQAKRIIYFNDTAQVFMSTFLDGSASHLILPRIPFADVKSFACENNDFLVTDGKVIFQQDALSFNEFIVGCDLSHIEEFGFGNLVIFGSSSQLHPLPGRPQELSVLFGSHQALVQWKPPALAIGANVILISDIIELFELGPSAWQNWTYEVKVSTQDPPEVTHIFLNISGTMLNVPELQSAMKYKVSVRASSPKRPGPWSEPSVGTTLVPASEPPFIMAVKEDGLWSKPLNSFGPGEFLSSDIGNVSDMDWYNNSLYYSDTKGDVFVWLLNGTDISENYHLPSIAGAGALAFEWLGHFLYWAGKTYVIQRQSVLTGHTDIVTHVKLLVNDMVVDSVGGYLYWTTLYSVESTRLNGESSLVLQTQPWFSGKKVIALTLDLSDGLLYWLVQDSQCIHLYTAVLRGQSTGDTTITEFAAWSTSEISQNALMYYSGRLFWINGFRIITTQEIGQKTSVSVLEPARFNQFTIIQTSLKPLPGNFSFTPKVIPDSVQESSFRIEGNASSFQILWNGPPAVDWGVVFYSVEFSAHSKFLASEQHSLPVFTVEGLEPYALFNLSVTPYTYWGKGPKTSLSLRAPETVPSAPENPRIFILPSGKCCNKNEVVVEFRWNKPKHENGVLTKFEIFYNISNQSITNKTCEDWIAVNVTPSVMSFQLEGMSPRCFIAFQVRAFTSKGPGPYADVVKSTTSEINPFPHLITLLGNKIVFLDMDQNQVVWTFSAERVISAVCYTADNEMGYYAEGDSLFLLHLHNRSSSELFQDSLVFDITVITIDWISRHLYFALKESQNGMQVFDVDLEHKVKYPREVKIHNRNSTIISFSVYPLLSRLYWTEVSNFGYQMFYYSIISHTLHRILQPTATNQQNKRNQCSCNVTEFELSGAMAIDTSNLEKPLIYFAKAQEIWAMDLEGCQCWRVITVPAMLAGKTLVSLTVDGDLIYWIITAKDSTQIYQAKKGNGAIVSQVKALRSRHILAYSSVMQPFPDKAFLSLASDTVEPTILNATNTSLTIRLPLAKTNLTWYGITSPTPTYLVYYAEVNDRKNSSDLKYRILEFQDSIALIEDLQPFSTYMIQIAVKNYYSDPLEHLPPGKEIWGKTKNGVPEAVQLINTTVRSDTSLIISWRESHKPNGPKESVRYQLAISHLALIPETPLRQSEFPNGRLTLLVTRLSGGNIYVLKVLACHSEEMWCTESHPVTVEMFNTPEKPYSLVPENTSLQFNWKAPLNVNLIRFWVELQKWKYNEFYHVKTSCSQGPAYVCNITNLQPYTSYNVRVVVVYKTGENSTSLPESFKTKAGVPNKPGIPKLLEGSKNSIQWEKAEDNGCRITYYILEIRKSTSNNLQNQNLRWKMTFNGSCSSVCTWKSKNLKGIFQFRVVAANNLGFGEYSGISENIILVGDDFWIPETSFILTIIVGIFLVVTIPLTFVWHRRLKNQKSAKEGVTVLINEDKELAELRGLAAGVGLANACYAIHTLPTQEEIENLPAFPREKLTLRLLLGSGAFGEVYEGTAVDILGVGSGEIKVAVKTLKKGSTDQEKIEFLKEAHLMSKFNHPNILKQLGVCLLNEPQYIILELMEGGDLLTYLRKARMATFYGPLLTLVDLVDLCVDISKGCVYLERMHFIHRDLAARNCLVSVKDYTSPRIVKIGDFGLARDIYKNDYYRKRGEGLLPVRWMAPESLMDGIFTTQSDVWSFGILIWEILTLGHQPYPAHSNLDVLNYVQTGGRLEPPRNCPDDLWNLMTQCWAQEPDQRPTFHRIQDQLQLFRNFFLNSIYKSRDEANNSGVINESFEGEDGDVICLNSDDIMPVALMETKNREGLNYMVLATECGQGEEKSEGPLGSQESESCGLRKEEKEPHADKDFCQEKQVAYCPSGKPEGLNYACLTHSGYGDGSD

[10] = target: KIT(L576P) (Homo sapiens, UniProt P10721, L576P); conditions: 1 µM; binder
[11] = target: INSR (Homo sapiens, UniProt P06213); conditions: 1 µM; binder
[12] = target: OSR1 (Homo sapiens, UniProt O95747); conditions: 1 µM; binder
[13] = target: TNIK (Homo sapiens, UniProt Q9UKE5); conditions: 1 µM; binder
[14] = target: PLK3 (Homo sapiens, UniProt Q9H4B4); conditions: 1 µM; binder
[15] = target: CDC2L1 (Homo sapiens, UniProt P21127); conditions: 1 µM; binder
[16] = target: MRCKA (Homo sapiens, UniProt Q5VT25); conditions: 1 µM; binder
[17] = target: PRP4 (Homo sapiens, UniProt Q13523); conditions: 1 µM; binder
Sequence of PRP4 (Q13523 whole entry): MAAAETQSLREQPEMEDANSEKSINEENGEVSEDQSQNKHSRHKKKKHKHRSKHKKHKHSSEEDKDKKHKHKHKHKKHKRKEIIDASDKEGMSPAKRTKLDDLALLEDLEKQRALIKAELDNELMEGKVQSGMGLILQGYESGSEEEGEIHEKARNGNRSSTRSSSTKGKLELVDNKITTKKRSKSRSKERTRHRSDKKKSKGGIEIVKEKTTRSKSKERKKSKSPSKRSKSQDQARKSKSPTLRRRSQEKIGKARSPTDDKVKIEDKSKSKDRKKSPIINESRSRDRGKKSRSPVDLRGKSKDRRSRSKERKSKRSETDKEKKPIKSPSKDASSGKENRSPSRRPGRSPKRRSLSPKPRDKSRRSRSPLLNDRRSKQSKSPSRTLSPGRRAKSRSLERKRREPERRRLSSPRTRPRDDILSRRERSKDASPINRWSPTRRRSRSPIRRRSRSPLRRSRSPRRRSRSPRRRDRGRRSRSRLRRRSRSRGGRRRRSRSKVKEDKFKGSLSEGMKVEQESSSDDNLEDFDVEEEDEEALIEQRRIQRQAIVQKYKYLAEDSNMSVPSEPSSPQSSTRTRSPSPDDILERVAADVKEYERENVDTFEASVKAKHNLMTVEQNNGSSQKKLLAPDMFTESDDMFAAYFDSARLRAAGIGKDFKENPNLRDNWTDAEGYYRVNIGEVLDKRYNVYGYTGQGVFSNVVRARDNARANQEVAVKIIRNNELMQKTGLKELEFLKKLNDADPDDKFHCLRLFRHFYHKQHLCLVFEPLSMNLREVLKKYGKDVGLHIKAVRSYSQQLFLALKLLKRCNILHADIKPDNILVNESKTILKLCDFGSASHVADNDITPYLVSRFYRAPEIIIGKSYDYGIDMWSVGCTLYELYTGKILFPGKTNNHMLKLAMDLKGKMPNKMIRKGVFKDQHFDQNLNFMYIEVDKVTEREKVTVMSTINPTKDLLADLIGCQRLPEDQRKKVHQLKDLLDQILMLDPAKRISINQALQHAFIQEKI

[18] = target: PYK2 (Homo sapiens, UniProt Q14289); conditions: 1 µM; binder
[19] = target: BUB1 (Homo sapiens, UniProt O43683); conditions: 1 µM; binder
[20] = target: ABL1(Q252H) (Homo sapiens, UniProt P00519, Q252H); conditions: 1 µM, binder
[21] = target: EPHA3 (Homo sapiens, UniProt P29320); conditions: 1 µM; binder
[22] = target: MLK2 (Homo sapiens, UniProt Q02779); conditions: 1 µM; binder
[23] = target: FGFR3(G697C) (Homo sapiens, UniProt P22607, G697C); conditions: 1 µM; binder
[24] = target: ULK1 (Homo sapiens, UniProt O75385); conditions: 1 µM; binder
[25] = target: PIM3 (Homo sapiens, UniProt Q86V86); conditions: 1 µM; binder
[26] = target: PIK4CB (Homo sapiens, UniProt Q9UBF8); conditions: 1 µM; binder
[27] = target: TRKC (Homo sapiens, UniProt Q16288); conditions: 1 µM; binder
[28] = target: MEK1 (Homo sapiens, UniProt Q02750); conditions: 1 µM; binder
[29] = target: FYN (Homo sapiens, UniProt P06241); conditions: 1 µM; binder
[30] = target: GRK7 (Homo sapiens, UniProt Q8WTQ7); conditions: 1 µM; binder

Sequence of AMPK-alpha1 (Q13131 whole entry): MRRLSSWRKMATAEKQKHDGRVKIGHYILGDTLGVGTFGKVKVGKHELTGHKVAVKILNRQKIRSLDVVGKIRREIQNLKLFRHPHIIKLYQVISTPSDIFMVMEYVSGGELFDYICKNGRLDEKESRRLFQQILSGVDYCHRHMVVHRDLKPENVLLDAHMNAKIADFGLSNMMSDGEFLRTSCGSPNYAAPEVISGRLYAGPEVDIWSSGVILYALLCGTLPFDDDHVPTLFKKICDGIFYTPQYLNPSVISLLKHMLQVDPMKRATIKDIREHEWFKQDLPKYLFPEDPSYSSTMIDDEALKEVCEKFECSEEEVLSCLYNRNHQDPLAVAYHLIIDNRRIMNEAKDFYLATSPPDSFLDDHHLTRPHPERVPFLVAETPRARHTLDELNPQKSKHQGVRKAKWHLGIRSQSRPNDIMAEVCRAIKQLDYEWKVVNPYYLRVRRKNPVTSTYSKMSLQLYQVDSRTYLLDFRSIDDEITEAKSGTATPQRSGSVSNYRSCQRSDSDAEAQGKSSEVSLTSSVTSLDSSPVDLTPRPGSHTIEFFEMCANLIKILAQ

SMILES: CNc1ncc2cc(-c3ccc(-c4cccc(C)n4)cc3Cl)c(=O)n(C[C@H]3OC[C@H](N)CO3)c2n1 [compound 6, G-5555]
- Percent Control [1]: 100%
- Percent Control [2]: 85%
- Percent Control [3]: 40%
- Percent Control [4]: 27%
- Percent Control [5]: 100%
- Percent Control [6]: 72%
- Percent Control [7]: 99%
- Percent Control [8]: 82%
- Percent Control [9]: 100%
- Percent Control [10]: 100%
- Percent Control [11]: 97%
- Percent Control [12]: 100%
- Percent Control [13]: 51%
- Percent Control [14]: 93%
- Percent Control [15]: 97%
- Percent Control [16]: 70%
- Percent Control [17]: 95%
- Percent Control [18]: 100%
- Percent Control [19]: 89%
- Percent Control ([20]; nonphosphorylated): 75%
- Percent Control ([20]; phosphorylated): 100%
- Percent Control [21]: 88%
- Percent Control [22]: 88%
- Percent Control [23]: 100%
- Percent Control [24]: 85%
- Percent Control [25]: 100%
- Percent Control [26]: 100%
- Percent Control [27]: 96%
- Percent Control [28]: 1%
- Percent Control [29]: 87%
- Percent Control [30]: 89%
